# pIC50: −log10 of the molar value.
# Biological target: T1, Gamma-aminobutyric acid receptor subunit beta-3 (Homo sapiens, UniProt P28472)
# T1 sequence (P28472 whole entry): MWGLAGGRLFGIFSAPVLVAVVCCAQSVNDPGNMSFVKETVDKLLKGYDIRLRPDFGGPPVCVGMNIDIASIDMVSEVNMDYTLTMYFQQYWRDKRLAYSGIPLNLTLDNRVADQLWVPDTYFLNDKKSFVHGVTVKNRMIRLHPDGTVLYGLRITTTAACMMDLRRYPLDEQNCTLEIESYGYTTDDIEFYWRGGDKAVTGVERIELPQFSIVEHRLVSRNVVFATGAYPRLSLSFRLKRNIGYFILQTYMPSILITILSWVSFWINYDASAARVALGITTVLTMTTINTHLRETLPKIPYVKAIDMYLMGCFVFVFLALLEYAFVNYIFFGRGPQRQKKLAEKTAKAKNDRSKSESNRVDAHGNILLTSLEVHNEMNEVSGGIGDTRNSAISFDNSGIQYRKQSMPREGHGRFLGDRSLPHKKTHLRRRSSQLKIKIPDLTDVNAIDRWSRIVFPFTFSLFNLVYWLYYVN
# Assay: Inhibition of [3H]EBOB binding to human GABA-A receptor beta3 subunit (range 1-28)
row,SMILES,pIC50
1,FC(F)(F)c1cc(Cl)c(-n2cc(C3(C(F)(F)F)N=N3)cn2)c(Cl)c1,7.55
2,N#Cc1nn(-c2c(Cl)cc(C(F)(F)F)cc2Cl)c(N)c1[S+]([O-])C(F)(F)F (configuration not stated) [FIPRONIL],7.55

# Reference: ChEMBL document CHEMBL1133847, “Fipronil-based photoaffinity probe for Drosophila and human beta 3 GABA receptors” (Bioorg Med Chem Lett, 2001)
